Laboratory results from article PMC12657724, “Structures of a lipin/Pah phosphatidic acid phosphatase in distinct catalytic states reveal a signature motif for substrate recognition” (The Journal of Biological Chemistry, 2025).

Target: T1, Tt Pah2 (WT, residues 1-321) (Tetrahymena thermophila, UniProt I7MFJ3)
T1 construct: gene TTHERM_00215970; residues 1-321, codon-optimised, N-terminal His-tag (pET28) kept, E. coli BL21(DE3) RIPL
T1 sequence (I7MFJ3 1-321): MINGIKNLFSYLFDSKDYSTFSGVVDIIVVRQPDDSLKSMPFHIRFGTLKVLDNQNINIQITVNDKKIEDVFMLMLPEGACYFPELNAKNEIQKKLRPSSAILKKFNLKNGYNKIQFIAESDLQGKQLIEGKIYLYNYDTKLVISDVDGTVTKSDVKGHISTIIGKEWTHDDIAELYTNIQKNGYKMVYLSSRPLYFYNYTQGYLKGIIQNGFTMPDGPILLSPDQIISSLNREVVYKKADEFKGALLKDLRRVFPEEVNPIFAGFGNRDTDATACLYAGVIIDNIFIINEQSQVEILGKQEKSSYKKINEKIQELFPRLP
Assay: absorbance at […] nm (p-nitrophenol release)
Assay type: biochemical
Conditions: Mg2+, pH 8, ambient temperature, 56 μM enzyme; very slow turnover

SMILES: O=[N+]([O-])c1ccc(OP(=O)(O)O)cc1 [pNPP]
- absorbance at 405 nm (p-nitrophenol release): we were able to observe detectable pNPP hydrolysis, albeit at a low rate
